Results from ChEMBL document CHEMBL1201862, “PubChem BioAssay data set” (2004).
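Where inhibition never reached the appropriate level, the endpoint shown equals the highest concentration tested. Otherwise, values were interpolated linearly from a five-concentration, 48-hour dose response in 96-well plates. GI50 is the concentration that inhibits growth by half.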 Calls of active or inactive are those of the source. No stated cut-off is given here; in the data, active = GI50 up to about 1.1 µM and inactive = higher.

Assays:
Experiment in all cases: NCI anticancer screen, dose series, 48 h
K562 = tested on: K562
HL-60 = tested on: HL-60
U-251 = tested on: U-251
SR = tested on: SR
PC-3 = tested on: PC-3
COLO 205 = tested on: COLO 205
SF-268 = tested on: SF-268
BT-549 = tested on: BT-549
SF-539 = tested on: SF-539
CCRF-CEM = tested on: CCRF-CEM
RXF 393 = tested on: RXF 393
NCI-H23 = tested on: NCI-H23
HT-29 = tested on: HT-29
Hs-578T = tested on: Hs-578T
M14 = tested on: M14
MCF7 = tested on: MCF7
Malme-3M = tested on: Malme-3M
IGROV-1 = tested on: IGROV-1
OVCAR-4 = tested on: OVCAR-4
NCI-H460 = tested on: NCI-H460

SMILES | GI50 (K562) | GI50 (HL-60) | GI50 (U-251) | GI50 (SR) | GI50 (PC-3) | GI50 (COLO 205) | GI50 (SF-268) | GI50 (BT-549) | GI50 (SF-539) | GI50 (CCRF-CEM) | GI50 (RXF 393) | GI50 (NCI-H23) | GI50 (HT-29) | GI50 (Hs-578T) | GI50 (M14) | GI50 (MCF7) | GI50 (Malme-3M) | GI50 (IGROV-1) | GI50 (OVCAR-4) | GI50 (NCI-H460)
Nc1ccc(-c2nc3ccccc3s2)cc1Cl | 66.7 µM (inactive) | > 92.3 µM (inactive) | 58.2 µM (inactive) | > 100 µM (inactive) | > 73.6 µM (inactive) | > 56.2 µM (inactive) | 67 µM (inactive) | > 66.4 µM (inactive) | 77.6 µM (inactive) | 10.2 µM (inactive) | > 39.8 µM (inactive) | 69.3 µM (inactive) | > 100 µM (inactive) | 56 µM (inactive) | > 100 µM (inactive) | < 0.01 µM (active) | > 100 µM (inactive) | < 0.01 µM (active) | > 100 µM (inactive) | 
CN1CCc2nc(N)nc(-c3nc(N)nc4c3CN(C)CC4)c2C1 | 75.9 µM (inactive) | > 100 µM (inactive) | > 100 µM (inactive) | 33 µM (inactive) | > 100 µM (inactive) | > 100 µM (inactive) | > 100 µM (inactive) | > 100 µM (inactive) | > 100 µM (inactive) |  | > 100 µM (inactive) | > 100 µM (inactive) | > 100 µM (inactive) | > 100 µM (inactive) | > 100 µM (inactive) | > 100 µM (inactive) | > 100 µM (inactive) | > 100 µM (inactive) | > 100 µM (inactive) | > 100 µM (inactive)
CC1=NN(C(=O)CC(=O)NC(=O)/C=C\c2ccccc2)C(=O)C1/N=N/c1ccc([N+](=O)[O-])cc1 (stereo unspecified) | 53.2 µM (inactive) | > 100 µM (inactive) | 35.3 µM (inactive) | > 10 µM (inactive) | > 100 µM (inactive) | > 100 µM (inactive) | > 100 µM (inactive) | 19.1 µM (inactive) | > 100 µM (inactive) | 42 µM (inactive) | > 100 µM (inactive) | 40.2 µM (inactive) | > 100 µM (inactive) | 44 µM (inactive) | > 100 µM (inactive) | > 100 µM (inactive) | > 100 µM (inactive) | 58.3 µM (inactive) |  | > 100 µM (inactive)
Clc1cc2nc(C3CCCO3)[nH]c2cc1Cl (stereo unspecified) | 38.5 µM (inactive) | 37.7 µM (inactive) | > 100 µM (inactive) | 37.6 µM (inactive) | 42.7 µM (inactive) | 37.1 µM (inactive) | 67 µM (inactive) | 26.2 µM (inactive) | > 100 µM (inactive) | 68.4 µM (inactive) | 66.5 µM (inactive) | 34.4 µM (inactive) | 33.7 µM (inactive) | 40.9 µM (inactive) | 72.9 µM (inactive) | 29.2 µM (inactive) | > 100 µM (inactive) | 61.9 µM (inactive) | 46.8 µM (inactive) | 
Cc1ccc(NCCN(C)C)c2c(=O)c3cc(O)ccc3sc12 | 1.5 µM (inactive) | 0.416 µM (active) | 1.63 µM (inactive) | 0.241 µM (active) | 1.22 µM (inactive) | 8.85 µM (inactive) | 4.35 µM (inactive) | 5.4 µM (inactive) | 3.55 µM (inactive) | 0.284 µM (active) | 1.22 µM (inactive) | 2.22 µM (inactive) | 2.49 µM (inactive) | 0.933 µM (active) | 4.88 µM (inactive) | 0.177 µM (active) | 5.28 µM (inactive) | 4.47 µM (inactive) | 7.21 µM (inactive) | 0.0516 µM (active)
O=C1O[C@]2(c3ccccc3)C(c3ccccc3)=C[C@]2(C(=O)c2ccccc2)C1=O | 23 µM (inactive) | 5.98 µM (inactive) | 31.6 µM (inactive) | 10.7 µM (inactive) | 39.1 µM (inactive) | 48.2 µM (inactive) | 38 µM (inactive) | 36.1 µM (inactive) | 23 µM (inactive) |  | 0.05 µM (active) | 33.7 µM (inactive) | 55 µM (inactive) | 39.2 µM (inactive) | 32.3 µM (inactive) | 28.4 µM (inactive) | 65.2 µM (inactive) | 33.1 µM (inactive) | 39.1 µM (inactive) | 27.1 µM (inactive)
CCOC(=O)C1(C)CCCc2sc(N)c(C#N)c21 (stereo unspecified) | > 100 µM (inactive) | > 100 µM (inactive) | > 100 µM (inactive) | > 100 µM (inactive) | > 100 µM (inactive) | > 100 µM (inactive) |  | > 100 µM (inactive) |  |  | > 100 µM (inactive) | > 100 µM (inactive) | > 100 µM (inactive) | > 100 µM (inactive) | > 100 µM (inactive) | > 100 µM (inactive) | > 100 µM (inactive) | > 100 µM (inactive) |  | > 100 µM (inactive)
